US8507460B2, “Substituted 3′,5′-cyclic phosphates of purine nucleotide compounds and pharmaceutical compositions for the treatment of viral infections” (priority 2011, dated 2013)

Legend:
[1] = Cytotoxicity evaluation, CellTiter-Blue Cell Viability Assay; assay type: cell-based; conditions: human, Zluc cells, read-out: HCV Replicon CC50
Description: For cytotoxicity evaluation, Zluc cells were treated with compound as described above, and cell viability was monitored using the CellTiter-Blue Cell Viability Assay (Promega) by adding 20 μL of the assay solution to each well. The plates were then incubated at 37° C./5% CO2 for at least 3 hours.

[2] = Stability in rat whole blood; assay type: in vitro ADME
fresh human hepatocytes = assay: Release of active metabolite in fresh human hepatocytes; assay type: in vitro ADME; conditions: 10 μM, 6 hr
Description: Plates of fresh human and mouse hepatocytes were obtained on ice. The medium was removed and replaced with hepatocyte culture medium (William's E supplemented with penicillin-streptomycin, 1% L-glutamine, 1% insulin-transferrin-selenium and 0.1 μM Dexamethasone (Invitrogen) or with Invitro GRO HI medium complemented with Torpedo antibiotics (Celsis)). Cells were left overnight in an incubator at 37° C. to acclimatize to culture and the medium.
Hepatocyte incubations were conducted at a final volume of 0.5 mL hepatocyte culture medium/well (0.8 million cells/well for human and 0.5 million cells/well for mouse; 12 well plate no overlay, collagen coat). Culture medium from overnight incubation of cells was removed and replaced with fresh medium, pre-warmed to 37° C., containing 10 μM of test compound from a stock solution in DMSO (final DMSO concentration was 0.1%). At each specific time point, incubation medium was removed and cell monolayers were carefully washed two times with ice-cold PBS. Following the last wash, all PBS was carefully removed and 1.0 mL of extraction solution (ice-cold 70% methanol/30% water) added. Cells were scraped off and suspended in the extraction solution, transferred to 2 mL polypropylene microfuge tubes and intracellular contents extracted overnight at −20° C.
After the overnight treatment the cellular extracts were prepared by centrifugation at 16,000×g for 10 min to remove cellular debris. The remaining sample was then dried using a refrigerated centrivap concentrator. Dry extracts were reconstituted in 1000 μL of HPLC-grade water and centrifuged at 16,000×g for 10 min. Aliquots (100 μL each) of the supernatant were transferred into a 96 well plate and internal standard (4 ng/mL final concentration) was added as the internal standard (IS) for LC-MS/MS analysis.
The incubation time points were 6, 24 and 48 hours for human hepatocytes and 1, 4, 8, 12 and 24 hours for mouse hepatocytes.

[3] = Stability in simulated gastric and intestinal fluids; assay type: in vitro ADME; conditions: 100 μM, 2 hours at 37° C., percent of peak area at time zero
Description: Simulated gastric and intestinal fluids containing pepsin and pancreatin respectively were prepared according to the U.S. Pharmacopoeia USP291 procedure (www.pharmacopeia.cn/v29240/usp29nf24s0_ris1s126.html). Test compound (final concentration 100 μM) was incubated in duplicate in the appropriate fluid for 2 hours at 37° C. The samples were quenched with 200 μl cold acetonitrile, vortexed for 30 seconds and then centrifuged at 16,100 g for 10 min. The supernatants were analyzed by HPLC on a C-18 column with UV detection at 252 nm. The time 0 samples were prepared by adding SGF or SIF fluid to the quenching solvent followed by the test compound. Stability of the compound was determined by peak area the test compound after incubation and calculated as percent of the peak area observed at time zero.

[4] = Stability in liver and intestinal subcellular fractions (microsomes and S9); assay type: in vitro ADME, human; conditions: 10 μM, NADPH, 60 min, percent unchanged
Description: Stability of test compounds were determined in subcellular fractions (microsomes and S9) of human liver and intestine in duplicate for each matrix. Pooled liver and intestinal microsomal, intestinal and liver S9 proteins (1.0 mg/mL), suspended in incubation buffer (100 mM potassium phosphate, pH […], and 0.1 mM EDTA), were preincubated for 5 min at 37° C. with 10 μM of a test compound from a 10 mM stock solution in DMSO (final DMSO concentration was 0.1%); the reaction was initiated by the addition of NADPH (3 mM final concentration). At specific times (0 and 60 min), 0.1 mL samples were taken and the reaction terminated by the addition of 4 volumes of stop solution (acetonitrile with 500 ng/mL carbutamide as an internal standard). The samples were vortexed for 30 sec and then centrifuged at 16,000 g for 10 min. 100 μL of supernatants were transferred to 96 deep-well plates preloaded with 100 μL distilled water and analyzed after mixing by LC-MS/MS. The MS peak area ratio of the test compound versus the internal standard was calculated and percent unchanged test compound over 60 minutes was calculated using this ratio.

CCOc1nc(N)nc2c1ncn2[C@@H]1O[C@@H]2COP(=O)(OC(C)C)O[C@H]2[C@@]1(C)O (single isomer, unassigned) [Compound 1a]
CC50 at 72 h [1]: > 50 µM | Stability WB_Rat (ice; 1 hr) [2]: 105% | FHH TP (6 hr) (fresh human hepatocytes): BLD^a | Stability SGF ([3]; simulated gastric fluid with pepsin): 99% | Stability SIF ([3]; simulated intestinal fluid with pancreatin): 99% | Stability HIS9 (1 hr) ([4]; HIS9 1.0 mg/mL): 106% | Stability HIM (1 hr) ([4]; human intestinal microsome 1.0 mg/mL): 107% | Stability HLS9 (1 hr) ([4]; human liver S9 fraction 1.0 mg/mL): 111% | Stability HLM (1 hr) ([4]; human liver microsome 1.0 mg/mL): 100%
